In patent publication US5561135A, “N,N,N',N'-tetrasubstituted-1,2-ethanediamine derivative compounds” (Ferrer Internacional, S.A., priority 1993, dated 1996):
pIC50: −log10 of the molar value. Structures can show the parent of a compound that is named as a salt.

Legend:
[1] = system: Male Sprague-Dawley rats; test: Stereotypy inhibition test (apomorphine, rats); assay type: in vivo; details: Rattus norvegicus, ip; intraperitoneal; apomorphine 1.5 mg/kg subcutaneously after 30 min; scored 40-120 min
Method: Stereotypy inhibition test: Male Sprague-Dawley rats, weighing 200-300 g were used. The animals were weighed and then placed in individual transparent boxes. At time 0 the compounds to be tested were administered intraperitoneally. 0.25% agar was used as vehicle. […] At 40, 50, 60, 90 and 120 min, stereotypy was scored from (-) to (+++) according to the following criteria: (-) absence of stereotypy or any abnormal movement; (+) presence of slight stereotyped movements of the head and intermittent sniffing; (++) intense movements of the head, mild licking interspersed with sniffing; and (+++) intense licking and/or gnawing. Results are expressed as ED50 in mg/kg for a better quantification.

[2] = Irwin test (behavioural and neurological undesirable effects); details: observed at first dose causing undesirable effects
[3] = in vivo
[4] = system: σ receptors; details: B. L. Largent et al, Eur. J. Pharmacol., 155, 345-7, 1988; cited from earlier work
[5] = molecular target: D2 receptors (Rattus norvegicus, UniProt P61169); test: Specific binding to D2 receptors, [^3 H]spiperone displacement
D2 receptors, sequence (P61169 whole entry): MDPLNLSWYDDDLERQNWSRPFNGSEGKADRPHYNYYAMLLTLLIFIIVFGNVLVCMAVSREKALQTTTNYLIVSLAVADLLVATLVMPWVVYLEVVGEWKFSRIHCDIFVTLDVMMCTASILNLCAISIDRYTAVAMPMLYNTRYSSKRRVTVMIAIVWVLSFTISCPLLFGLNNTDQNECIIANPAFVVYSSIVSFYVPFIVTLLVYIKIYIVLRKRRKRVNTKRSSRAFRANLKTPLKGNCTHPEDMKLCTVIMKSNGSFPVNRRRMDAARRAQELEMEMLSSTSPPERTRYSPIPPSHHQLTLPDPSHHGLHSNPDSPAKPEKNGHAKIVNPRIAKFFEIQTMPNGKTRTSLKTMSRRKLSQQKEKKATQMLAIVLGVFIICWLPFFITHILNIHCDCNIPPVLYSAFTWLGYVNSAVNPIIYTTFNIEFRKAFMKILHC

[6] = molecular target: T1, σ receptors (Cavia porcellus, UniProt Q60492); test: Specific binding to σ receptors, (+)[^3 H]3-PPP displacement; parameters: species or system guinea-pig; details: for pIC50: guinea-pig total brain membrane, 2 nM (+)[^3 H]3-PPP, 90 min, 25° C., pH 8.5
T1 construct: membrane corresponding to 40 mg of guinea-pig total brain; from tissue; host or cells: guinea-pig total brain membranes
T1 sequence (Q60492 whole entry): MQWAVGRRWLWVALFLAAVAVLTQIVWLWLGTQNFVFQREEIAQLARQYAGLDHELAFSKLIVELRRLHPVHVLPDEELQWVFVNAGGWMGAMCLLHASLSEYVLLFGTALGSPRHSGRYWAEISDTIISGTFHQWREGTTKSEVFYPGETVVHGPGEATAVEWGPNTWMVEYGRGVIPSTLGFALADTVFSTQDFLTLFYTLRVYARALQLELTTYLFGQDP
Method: (§1) Thus, total binding of ligand to membranes was attained. Non-specific binding was then determined by adding a micromolar concentration of unlabelled 3-PPP.

[7] = system: σ receptors; test: as above; parameters: species or system guinea-pig
Method: as §1

O=C(CCCN1CCC(O)(c2ccc(Cl)cc2)CC1)c1ccc(F)cc1 [Haloperidol]
ED50 [1]: 0.4 mg/kg
Side effects [2]: Hypothermia, Catalepsy.
First dose causing behavioural and neurological undesirable effects [3]: 10 mg/kg
Receptor action (literature, in words) [4]: acts on both σ and D2 receptors

CN(CCCC(c1ccc(F)cc1)c1ccc(F)cc1)CCN(C)Cc1ccc(F)cc1 [Example 9, N-(4,4-bis(p-fluorophnyl)butyl)-N,N'-dimethyl-N'-(p-fluorobenzyl)-1,2-ethanediamine dihydrochloride]
pIC50 [5]: 5.63
pIC50 [6]: 7.08

CN(CCCC(=O)c1ccc(F)cc1)CCN(C)Cc1ccccc1 [Example 5, 4-[N-(2-(N'-benzyl,N'-methylamino)ethyl)-N-methylamino]-1-(p-fluorophenyl)-1-butanone dihydrochloride]
pIC50 [5]: 6.39
pIC50 [6]: 8.70

CN(CCCC(O)c1ccc(F)cc1)CCN(C)Cc1ccc(F)cc1 (centres unmarked) [Example 8, 1-(p-fluorophenyl)-4-[N-(2-(N'-(p-fluorobenzyl)-N'-methylamino)ethyl)-N-methanlamino]-1-butanol dihydrochloride]
pIC50 [5]: 5.11
pIC50 [6]: 8.55

CN(CCCC(=O)c1ccc(F)cc1)CCN(C)c1ncccn1 [Example 12, 1-(p-fluorophenyl)-4-[N-[2-(N'-(2-pyrimidinyl)-N'-methyl-amino)ethyl]-N-methylamino]-1-butanone disulphate]
pIC50 [5]: 5.82
Relative selectivity ([7]; D2 /σ ratio relative to Haloperidol): 21.5
Selectivity D2 /σ ([7]; ratio of IC50 D2 (rat striatum) to IC50 σ (guinea-pig brain)): 103
pIC50 [6]: 7.84

CN(CCCC(=O)c1ccc(F)cc1)CCN(C)Cc1ccc(F)cc1 [Example 7, 1-(p-fluorophenyl)-4-[N-(2-(N'-(p-fluorobenzyl)-N'-methylamino)ethyl)-N-methylamino]-1-butanone dihydrochloride]
Activity on D2 receptors (in words) [5]: poorly active on D2 receptors
pIC50 [5]: 6.17
Binding to σ receptors (in words) [6]: more potent than Haloperidol
pIC50 [6]: 9.28

CN(CCCC(O)c1ccc(F)cc1)CCN(C)Cc1ccccc1 (centres unmarked) [Example 6, 4-[N-(2-(N'-benzyl, N'-methylamino)ethyl) -N-methylamino]-1-(p-fluorophenyl)-1-butanol dihydrochloride]
pIC50 [5]: 4.09
pIC50 [6]: 7.54
